Assay results from PMC9036676 (RSC Advances, 2021).
Positions of bridges follow the written chain, without caps; N, C: chain ends. Non-standard residues stand in square brackets, D forms with d. Residues, ends and D or L forms follow the SMILES beside them. Trp(1-CH2COOH) = N[C@@H](Cc1cn(CC(=O)O)c2ccccc12)C(=O)O; Oic = O=C(O)[C@@H]1C[C@@H]2CCCC[C@@H]2N1; Hyp = O=C(O)[C@@H]1C[C@@H](O)CN1; NMeNle = CCCC[C@H](NC)C(=O)O; Pip = O=C(O)[C@@H]1CCCCN1; NMeA = CN[C@@H](C)C(=O)O; Dab = NCC[C@H](N)C(=O)O; Dap = NC[C@H](N)C(=O)O

Key:
[1] = test system: PD-1/PD-L1 interaction; conditions: read-out: IC50, inhibitory activity against the PD-1/PD-L1 interaction; cited from earlier work
[2] = biological target: PD-1/PD-L1 (Homo sapiens, UniProt Q9NZQ7); assay: PD-1/PD-L1 TR-FRET assay; format: binding; conditions: IC50 on PD-1/PD-L1, TR-FRET assay
Sequence of PD-1/PD-L1 (Q9NZQ7 19-238 limits assumed): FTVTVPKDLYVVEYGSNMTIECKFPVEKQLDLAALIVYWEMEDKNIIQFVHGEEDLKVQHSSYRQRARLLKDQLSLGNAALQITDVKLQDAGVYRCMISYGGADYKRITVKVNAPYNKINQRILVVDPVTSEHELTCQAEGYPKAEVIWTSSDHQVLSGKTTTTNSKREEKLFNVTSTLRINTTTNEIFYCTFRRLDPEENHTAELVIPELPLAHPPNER

| Structure (SMILES) | IC50 [1] | IC50 [2] |
| --- | --- | --- |
| CCCC[C@H]1C(=O)N(C)[C@@H](CCCC)C(=O)N[C@@H](CCCNC(=N)N)C(=O)N[C@H](C(=O)NCC(N)=O)CSCC(=O)N[C@@H](Cc2ccccc2)C(=O)N(C)[C@@H](C)C(=O)N[C@@H](CC(N)=O)C(=O)N2CCC[C@H]2C(=O)N[C@@H](Cc2c[nH]cn2)C(=O)N[C@@H](CC(C)C)C(=O)N[C@@H](CO)C(=O)N[C@@H](Cc2c[nH]c3ccccc23)C(=O)N[C@@H](CO)C(=O)N[C@@H](Cc2c[nH]c3ccccc23)C(=O)N1C [Compound 1] ({CH2CO}-F[NMeA]NPHLSWSW[NMeNle][NMeNle]RCG-NH2; thioether N-14) | 9 nM | – |
| CCCC[C@H]1C(=O)N(C)[C@@H](CCCC)C(=O)N[C@@H](CC(C)C)C(=O)N[C@H](C(=O)NCC(N)=O)CSCC(=O)N[C@@H](Cc2ccc(O)cc2)C(=O)N2CCCC[C@H]2C(=O)N[C@@H](CC(N)=O)C(=O)N2[C@@H](C[C@@H]3CCCC[C@@H]32)C(=O)N[C@@H](CN)C(=O)N[C@@H](CC(C)C)C(=O)N2C[C@H](O)C[C@H]2C(=O)N[C@@H](Cc2c[nH]c3ccccc23)C(=O)N[C@@H](CCN)C(=O)N[C@@H](Cc2cn(CC(=O)O)c3ccccc23)C(=O)N1C [Compound 5] ({CH2CO}-Y[Pip]N[Oic][Dap]L[Hyp]W[Dab][Trp(1-CH2COOH)][NMeNle][NMeNle]LCG-NH2; thioether N-14) | – | 14.6 nM |
| CCCC[C@H]1C(=O)N(C)[C@@H](CCCC)C(=O)N[C@@H](CC(C)C)C(=O)N[C@H](C(=O)NCC(N)=O)CSCC(=O)N[C@@H](Cc2ccccc2)C(=O)N(C)[C@@H](C)C(=O)N[C@@H](CC(N)=O)C(=O)N2CCC[C@H]2C(=O)N[C@@H](Cc2c[nH]cn2)C(=O)N[C@@H](CC(C)C)C(=O)N2C[C@H](O)C[C@H]2C(=O)N[C@@H](Cc2c[nH]c3ccccc23)C(=O)N[C@@H](CO)C(=O)N[C@@H](Cc2c[nH]c3ccccc23)C(=O)N1C [Compound 2] ({CH2CO}-F[NMeA]NPHL[Hyp]WSW[NMeNle][NMeNle]LCG-NH2; thioether N-14) | – | 40.1 nM |
